SMILES strings stand for the structures. Where only a bound is given, the exact number is not on record here.

ROCK2, sequence (O75116 whole entry, species assumed): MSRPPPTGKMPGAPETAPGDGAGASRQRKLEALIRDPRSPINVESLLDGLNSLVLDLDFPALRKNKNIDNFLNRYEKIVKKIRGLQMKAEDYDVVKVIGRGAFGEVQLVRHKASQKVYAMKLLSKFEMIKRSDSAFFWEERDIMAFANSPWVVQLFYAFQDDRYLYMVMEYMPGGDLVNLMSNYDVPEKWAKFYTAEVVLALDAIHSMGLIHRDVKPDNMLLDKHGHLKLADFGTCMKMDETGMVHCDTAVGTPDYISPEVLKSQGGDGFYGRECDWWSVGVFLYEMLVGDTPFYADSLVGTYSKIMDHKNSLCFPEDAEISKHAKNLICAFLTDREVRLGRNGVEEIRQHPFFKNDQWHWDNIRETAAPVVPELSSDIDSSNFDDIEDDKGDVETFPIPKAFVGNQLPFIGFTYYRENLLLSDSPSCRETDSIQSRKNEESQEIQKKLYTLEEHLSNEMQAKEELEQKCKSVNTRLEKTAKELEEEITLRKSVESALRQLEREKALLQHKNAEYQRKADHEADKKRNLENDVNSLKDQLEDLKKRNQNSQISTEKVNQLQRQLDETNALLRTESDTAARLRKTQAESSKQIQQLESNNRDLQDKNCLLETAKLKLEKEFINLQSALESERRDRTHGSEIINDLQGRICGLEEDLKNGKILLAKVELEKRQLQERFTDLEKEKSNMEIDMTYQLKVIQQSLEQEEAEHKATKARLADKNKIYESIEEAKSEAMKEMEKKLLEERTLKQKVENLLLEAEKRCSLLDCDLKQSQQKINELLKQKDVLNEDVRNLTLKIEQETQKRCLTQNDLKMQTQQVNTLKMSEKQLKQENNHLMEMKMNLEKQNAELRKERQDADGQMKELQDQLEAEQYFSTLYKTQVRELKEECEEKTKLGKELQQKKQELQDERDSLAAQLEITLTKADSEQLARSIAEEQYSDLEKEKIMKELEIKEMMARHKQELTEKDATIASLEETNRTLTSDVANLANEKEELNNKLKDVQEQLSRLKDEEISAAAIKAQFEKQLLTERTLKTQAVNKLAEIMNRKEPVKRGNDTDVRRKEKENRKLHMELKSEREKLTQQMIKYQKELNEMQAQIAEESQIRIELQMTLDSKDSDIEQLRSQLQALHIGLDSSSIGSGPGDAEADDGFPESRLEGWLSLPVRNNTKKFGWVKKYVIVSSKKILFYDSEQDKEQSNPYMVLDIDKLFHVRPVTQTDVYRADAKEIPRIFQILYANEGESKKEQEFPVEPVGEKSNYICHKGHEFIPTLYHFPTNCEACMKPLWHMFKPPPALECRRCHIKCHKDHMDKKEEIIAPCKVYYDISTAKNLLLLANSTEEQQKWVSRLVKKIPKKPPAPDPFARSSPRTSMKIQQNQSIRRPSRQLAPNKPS

This experiment concerns the target ROCK2 (Homo sapiens, UniProt O75116). Put plainly: ROCK2 kinase inhibition assay (Caliper LABCHIP, FITC peptide substrate). In kind it is biochemical. As to conditions: 5 μM ATP, 1.5 μM peptide substrate; value ranges. In short, it runs like this:
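Dose-response curves gave IC50 from inhibition of peptide phosphorylation, measured by LabChip separation after EDTA stop. Reactions used 1.5 μM FITC-labelled peptide, 5 μM ATP, 20 mM HEPES pH 7.5 with MgCl2, Brij-35, DTT, and under 2% DMSO.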
The IC50 is the point on the concentration scale where inhibition reaches its midpoint. High values mean weaker potency, low ones greater potency. Regarding `CNC(=O)C(c1ccccc1)N1CCN(c2ccc(-c3cn[nH]c3)cc2)C1=O` (single isomer, unassigned) [Example 299, 2-(3-(4-(1H-pyrazol-4-yl)phenyl)-2-oxoimidazolidin-1-yl)-N-methyl-2-phenylacetamide], the IC50 fell in the range of 20.1 to 200 nM.

In turn, `COc1cccc(C(C(=O)NC2CC2)N2CCN(c3ccc(-c4cn[nH]c4)cc3)C2=O)c1` (single isomer, unassigned) [Example 300, 2-(3-(4-(1H-pyrazol-4-yl)phenyl)-2-oxoimidazolidin-1-yl)-N-cyclopropyl-2-(3-methoxyphenyl)acetamide] yielded an IC50 of 20.1 to 200 nM.

Turning to `COc1cccc(C(C(=O)NC2CC2)N2CCN(c3ccc(-c4cn[nH]c4)cc3)C2=O)c1` (single isomer, unassigned) [Example 301, 2-(3-(4-(1H-pyrazol-4-yl)phenyl)-2-oxoimidazolidin-1-yl)-N-cyclopropyl-2-(3-methoxyphenyl)acetamide], the half-maximal inhibitory concentration (IC50) is 2.1 to 20 nM.

As for `COc1cccc(C(C(=O)NCC(C)(C)O)N2CCN(c3ccc(-c4cn[nH]c4)cc3)C2=O)c1` (single isomer, unassigned) [Example 303, 2-(3-(4-(1H-pyrazol-4-yl)phenyl)-2-oxoimidazolidin-1-yl)-N-(2-hydroxy-2-methylpropyl)-2-(3-methoxyphenyl)acetamide], the IC50 lay within 20.1 to 200 nM.

In turn, `CNC(=O)C(C)(c1cccc(OC)c1)N1CCN(c2ccc(-c3cn[nH]c3)cc2)C1=O` (single isomer, unassigned) [Example 304, 2-(3-(4-(1H-Pyrazol-4-yl)phenyl)-2-oxoimidazolidin-1-yl)-2-(3-methoxyphenyl)-N-methylpropanamide] yielded an IC50 of 200 to 2000 nM.

For `CNCC(c1cccc(OC)c1)N1CCN(c2ccc(-c3cn[nH]c3)cc2)C1=O` (single isomer, unassigned) [Example 309, 1-(4-(1H-Pyrazol-4-yl)phenyl)-3-(1-(3-methoxyphenyl)-2-(methylamino)ethyl)imidazolidin-2-one], the IC50 lay within 20.1 to 200 nM.

In turn, `CNCC(c1cccc(OC)c1)N1CCN(c2ccc(-c3cn[nH]c3)cc2)C1=O` (single isomer, unassigned) [Example 310, 1-(4-(1H-Pyrazol-4-yl)phenyl)-3-(1-(3-methoxyphenyl)-2-(methylamino)ethyl)imidazolidin-2-one] yielded an IC50 of 2.1 to 20 nM.

For `COc1cccc(C(CO)n2ccn(-c3ccc(-c4cn[nH]c4)cc3)c2=O)c1` (single isomer, unassigned) [Example 323, 1-(4-(1H-Pyrazol-4-yl)phenyl)-3-(2-hydroxy-1-(3-methoxyphenyl)ethyl)-1H-imidazol-2(3H)-one], the IC50 is 200 to 2000 nM.

Compound `COc1cccc(C(CO)n2ccn(-c3ccc(-c4cn[nH]c4)cc3)c2=O)c1` (single isomer, unassigned) [Example 324, 1-(4-(1H-Pyrazol-4-yl)phenyl)-3-(2-hydroxy-1-(3-methoxyphenyl)ethyl)-1H-imidazol-2(3H)-one] had an IC50 below 2 nM.

`COc1cccc(C(C)n2ccn(-c3ccc(-c4ccnc5[nH]ccc45)cc3)c2=O)c1` (single isomer, unassigned) [Example 325, 1-(4-(1H-Pyrrolo[2,3-b]pyridin-4-yl)phenyl)-3-(1-(3-methoxyphenyl)ethyl)-1H-imidazol-2(3H)-one] returned an IC50 of 20.1 to 200 nM.

`COc1cccc(C(C)n2ccn(-c3ccc(-c4ccnc5[nH]ccc45)cc3)c2=O)c1` (single isomer, unassigned) [Example 326, 1-(4-(1H-Pyrrolo[2,3-b]pyridin-4-yl)phenyl)-3-(1-(3-methoxyphenyl)ethyl)-1H-imidazol-2(3H)-one] showed an IC50 of 2.1 to 20 nM.

`COc1cccc(C(C)n2ccn(-c3ccc(-c4ccnc(F)c4)cc3)c2=O)c1` (single isomer, unassigned) [Example 327, 1-(4-(2-fluoropyridin-4-yl)phenyl)-3-(1-(3-methoxyphenyl)ethyl)-1H-imidazol-2(3H)-one] had an IC50 of 200 to 2000 nM.

Turning to `COc1cccc(C(C)n2ccn(-c3ccc(-c4cn[nH]c4)cc3)c2=O)c1` (single isomer, unassigned) [Example 339, 1-(4-(1H-pyrazol-4-yl)phenyl)-3-(1-(3-methoxyphenyl)ethyl)-1H-imidazol-2(3H)-one], the IC50 was below 2 nM.

Regarding `COc1cccc(C(C)n2ccn(-c3ccc(-c4cn[nH]c4)cc3)c2=O)c1` (single isomer, unassigned) [Example 340, 1-(4-(1H-pyrazol-4-yl)phenyl)-3-(l-(3-methoxyphenyl)ethyl)-1H-imidazol-2(3H)-one], the IC50 fell in the range of 20.1 to 200 nM.

`CCc1cc(-n2ccn(C(C)c3cccc(OC)c3)c2=O)ccc1-c1cn[nH]c1` (single isomer, unassigned) [Example 353, 1-(3-ethyl-4-(1H-pyrazol-4-yl)phenyl)-3-(1-(3-methoxyphenyl)ethyl)-1H-imidazol-2(3H)-one] displayed an IC50 of 2.1 to 20 nM.

With `COc1cccc(C(C)n2ccn(-c3ccc(-c4cn[nH]c4)cn3)c2=O)c1` (single isomer, unassigned) [Example 354, 1-(5-(1H-pyrazol-4-yl)pyridin-2-yl)-3-(1-(3-methoxyphenyl)ethyl)-1H-imidazol-2(3H)-one], the half-maximal inhibitory concentration (IC50) was in the range of 20.1 to 200 nM.

`COc1cccc(C(C)n2ccn(-c3ccc(-c4cn[nH]c4)cn3)c2=O)c1` (single isomer, unassigned) [Example 355, 1-(5-(1H-pyrazol-4-yl)pyridin-2-yl)-3-(1-(3-methoxyphenyl)ethyl)-1H-imidazol-2(3H)-one] displayed an IC50 below 2 nM.

`CC(c1cccc(OCC2CC2)c1)n1ccn(-c2ccc(-c3cn[nH]c3)cc2)c1=O` (single isomer, unassigned) [Example 356, 1-(4-(1H-pyrazol-4-yl)phenyl)-3-(1-(3-(cyclopropylmethoxy)phenyl)ethyl)-1H-imidazol-2(3H)-one] returned an IC50 of 200 to 2000 nM.

Consider `CC(c1cccc(OCC2CC2)c1)n1ccn(-c2ccc(-c3cn[nH]c3)cc2)c1=O` (single isomer, unassigned) [Example 357, 1-(4-(1H-pyrazol-4-yl)phenyl)-3-(1-(3-(cyclopropylmethoxy)phenyl)ethyl)-1H-imidazol-2(3H)-one], for which the IC50 lay within 20.1 to 200 nM.

`CCc1cc(-n2ccn(C(CO)c3cccc(OC)c3)c2=O)ccc1-c1cn[nH]c1` (single isomer, unassigned) [Example 358, 1-(3-ethyl-4-(1H-pyrazol-4-yl)phenyl)-3-(2-hydroxy-1-(3-methoxyphenyl)ethyl)-1H-imidazol-2(3H)-one] yielded an IC50 of 200 to 2000 nM.

For the compound `CCc1cc(-n2ccn(C(CO)c3cccc(OC)c3)c2=O)ccc1-c1cn[nH]c1` (single isomer, unassigned) [Example 359, 1-(3-ethyl-4-(1H-pyrazol-4-yl)phenyl)-3-(2-hydroxy-1-(3-methoxyphenyl)ethyl)-1H-imidazol-2(3H)-one], the IC50 is 20.1 to 200 nM.

In turn, `COc1cccc(C(CO)n2ccn(-c3ccc(-c4cn[nH]c4)c(OC)c3)c2=O)c1` (single isomer, unassigned) [Example 360, 1-(2-hydroxy-1-(3-methoxyphenyl)ethyl)-3-(3-methoxy-4-(1H-pyrazol-4-yl)phenyl)-1H-imidazol-2(3H)-one] returned an IC50 of 200 to 2000 nM.

In turn, `COc1cccc(C(CO)n2ccn(-c3ccc(-c4cn[nH]c4)c(OC)c3)c2=O)c1` (single isomer, unassigned) [Example 361, 1-(2-hydroxy-1-(3-methoxyphenyl)ethyl)-3-(3-methoxy-4-(1H-pyrazol-4-yl)phenyl)-1H-imidazol-2(3H)-one] gave an IC50 of 2.1 to 20 nM.

Source of the values: US10123993B2, “Cyclic ureas as inhibitors of rock” (BRISTOL-MYERS SQUIBB COMPANY, priority 2015, dated 2018).
